Measurements: patent US9777003B2, “Tricyclic heterocycles as bet protein inhibitors” (Incyte Corporation, priority 2013, dated 2017)
Counter-ions that a name gives are not always drawn.

Experiments:
BRD4-BD1 = BRD4-BD1 (Homo sapiens (Human), UniProt O60885); assay: BRD4 AlphaScreen assay, BRD4-BD1; type: binding; settings: biotin-labeled tetra-acetylated histone H4 peptide, 75 min, room temperature, read-out: BRD4 BD-1 enzyme IC50
Procedure, shortened: (§1)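 Displacement of 50 nM biotinylated tetra-acetylated H4 peptide (H4Ac4) from BRD4-BD1 (3.8 nM) or BRD4-BD2 (20 nM) in HEPES pH 7.4, 100 mM NaCl, CHAPS, BSA; 75 min at room temperature. Streptavidin donor/GSH acceptor beads were added for a further 75 min in the dark; IC50 from percent control activity versus log concentration.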

BRD4-BD2 = BRD4-BD2 (Homo sapiens (Human), UniProt O60885); assay: BRD4 AlphaScreen assay, BRD4-BD2; type: binding; settings: biotin-labeled tetra-acetylated histone H4 peptide, 75 min, room temperature, read-out: BRD4 BD-2 enzyme IC50
Procedure, shortened: as §1

Cc1nnc2ccc3c(cc(-c4ccn(CCC(=O)N5CCN(C)CC5)n4)n3Cc3cccc(Cl)c3)n12 [Example 105, 6-(3-chlorobenzyl)-1-methyl-7-{1-[3-(4-methylpiperazin-1-yl)-3-oxopropyl]-1H-pyrazol-3-yl}-6H-pyrrolo[2,3-e][1,2,4]triazolo[4,3-a]pyridine] was tested. Which IC50 (BRD4-BD1) did it give?
Its IC50 is at most 100 nM.

What about the IC50 (BRD4-BD2) of the same compound?
The IC50 was at most 100 nM.

With CC(=O)N1CC(CC#N)(n2ccc(-c3cc4c(ccc5nnc(C)n54)n3Cc3cccc(Cl)c3)n2)C1 [Example 106, (1-acetyl-3-{3-[6-(3-chlorobenzyl)-1-methyl-6H-pyrrolo[2,3-e][1,2,4]triazolo[4,3-a]pyridin-7-yl]-1H-pyrazol-1-yl}azetidin-3-yl)acetonitrile] as the compound, how does the IC50 (BRD4-BD1) read?
The IC50 was at most 100 nM.

And the IC50 (BRD4-BD2)?
Its IC50 is at most 100 nM.

With Cc1nnc2ccc3c(cc(-c4ccn(C5(CC#N)CN(S(C)(=O)=O)C5)n4)n3Cc3cccc(Cl)c3)n12 [Example 107, [3-{3-[6-(3-chlorobenzyl)-1-methyl-6H-pyrrolo[2,3-e][1,2,4]triazolo[4,3-a]pyridin-7-yl]-1H-pyrazol-1-yl}-1-(methylsulfonyl)azetidin-3-yl]acetonitrile] as the compound, how does the IC50 (BRD4-BD1) read?
Its IC50 is at most 100 nM.

And the IC50 (BRD4-BD2)?
The IC50 was at most 100 nM.

Which results are given for CC(=O)N1CC(n2ccc(-c3cc4c(ccc5nnc(C)n54)n3Cc3cccc(Cl)c3)n2)C1 [Example 108, 7-[1-(1-acetylazetidin-3-yl)-1H-pyrazol-3-yl]-6-(3-chlorobenzyl)-1-methyl-6H-pyrrolo[2,3-e][1,2,4]triazolo[4,3-a]pyridine]?
IC50 (BRD4-BD1): ≤ 100 nM; IC50 (BRD4-BD2): ≤ 100 nM

For Cc1nnc2ccc3c(cnn3Cc3ccccc3)n12 [Example 112, 6-benzyl-1-methyl-6H-pyrazolo[3,4-e][1,2,4]triazolo[4,3-a]pyridine], which IC50 (BRD4-BD1) is on record?
Its IC50 is 100 to 1000 nM.

What about the IC50 (BRD4-BD2) of the same compound?
The IC50 was 100 to 1000 nM.

Which results are given for CCNC(=O)c1cc2c(ccc3nnc(C)n32)n1Cc1cccc(Cl)c1 [Example 113, 6-(3-Chlorobenzyl)-N-ethyl-1-methyl-6H-pyrrolo[2,3-e][1,2,4]triazolo[4,3-a]pyridine-7-carboxamide Trifluoroacetate Salt]?
IC50 (BRD4-BD1): ≤ 100 nM; IC50 (BRD4-BD2): ≤ 100 nM

Which results are given for Cc1nnc2ccc3c(cc(C(=O)NCC4CC4)n3Cc3cccc(Cl)c3)n12 [Example 114, 6-(3-Chlorobenzyl)-N-(cyclopropylmethyl)-1-methyl-6H-pyrrolo[2,3-e][1,2,4]triazolo[4,3-a]pyridine-7-carboxamide Trifluoroacetate Salt]?
IC50 (BRD4-BD1): ≤ 100 nM; IC50 (BRD4-BD2): ≤ 100 nM

Which IC50 (BRD4-BD1) does the source give for Cc1nnc2ccc3c(cc(C(=O)NCCN(C)C)n3Cc3cccc(Cl)c3)n12 [Example 115, 6-(3-Chlorobenzyl)-N-[2-(dimethylamino)ethyl]-1-methyl-6H-pyrrolo[2,3-e][1,2,4]triazolo[4,3-a]pyridine-7-carboxamide bis(trifluoroacetate) Salt] here?
The IC50 was 100 to 1000 nM.

And the IC50 (BRD4-BD2)?
Its IC50 is 100 to 1000 nM.

Which IC50 (BRD4-BD1) does the source give for Cc1nnc2ccc3c(cc(C(=O)N4CCOCC4)n3Cc3cccc(Cl)c3)n12 [Example 116, 6-(3-Chlorobenzyl)-1-methyl-7-(morpholin-4-ylcarbonyl)-6H-pyrrolo[2,3-e][1,2,4]triazolo[4,3-a]pyridine Trifluoroacetate Salt] here?
Its IC50 is 1000 to 10000 nM.

And the IC50 (BRD4-BD2)?
The IC50 was 1000 to 10000 nM.

What does the source list for Cc1nnc2ccc3c(cc(C(=O)NCCO)n3Cc3cccc(Cl)c3)n12 [Example 117, 6-(3-Chlorobenzyl)-N-(2-hydroxyethyl)-1-methyl-6H-pyrrolo[2,3-e][1,2,4]triazolo[4,3-a]pyridine-7-carboxamide Trifluoroacetate Salt]?
IC50 (BRD4-BD1): ≤ 100 nM; IC50 (BRD4-BD2): ≤ 100 nM

How did the IC50 (BRD4-BD1) turn out when Cc1nnc2ccc3c(cc(C(=O)NC4CN(C)C4)n3Cc3cccc(Cl)c3)n12 [Example 118, 6-(3-Chlorobenzyl)-1-methyl-N-(1-methylazetidin-3-yl)-6H-pyrrolo[2,3-e][1,2,4]triazolo[4,3-a]pyridine-7-carboxamide bis(trifluoroacetate) Salt] was run?
Its IC50 is 100 to 1000 nM.

And the IC50 (BRD4-BD2)?
The IC50 was 100 to 1000 nM.

How did the IC50 (BRD4-BD1) turn out when Cc1nnc2ccc3c(cc(C(=O)NCCN4CCOCC4)n3Cc3cccc(Cl)c3)n12 [Example 119, 6-(3-Chlorobenzyl)-1-methyl-N-(2-morpholin-4-ylethyl)-6H-pyrrolo[2,3-e][1,2,4]triazolo[4,3-a]pyridine-7-carboxamide Trifluoroacetate Salt] was run?
Its IC50 is at most 100 nM.

What about the IC50 (BRD4-BD2) of the same compound?
Its IC50 is at most 100 nM.

For Cc1nnc2ccc3c(cc(C(=O)NC(C)(C)C)n3Cc3cccc(Cl)c3)n12 [Example 120, N-(tert-Butyl)-6-(3-chlorobenzyl)-1-methyl-6H-pyrrolo[2,3-e][1,2,4]triazolo[4,3-a]pyridine-7-carboxamide Trifluoroacetate Salt], which IC50 (BRD4-BD1) is on record?
Its IC50 is 100 to 1000 nM.

What about the IC50 (BRD4-BD2) of the same compound?
The IC50 was 100 to 1000 nM.

Which IC50 (BRD4-BD1) does the source give for CCNC(=O)c1cc2c(ccc3nnc(C)n32)n1Cc1cccc(CN2CCC2)c1 [Example 121, 6-[3-(Azetidin-1-ylmethyl)benzyl]-N-ethyl-1-methyl-6H-pyrrolo[2,3-e][1,2,4]triazolo[4,3-a]pyridine-7-carboxamide bis(trifluoroacetate) Salt] here?
Its IC50 is at most 100 nM.

And the IC50 (BRD4-BD2)?
Its IC50 is at most 100 nM.

What does the source list for CNC(=O)c1cc2c(ccc3nnc(C)n32)n1Cc1cccc(CN2CCC2)c1 [Example 122, 6-[3-(Azetidin-1-ylmethyl)benzyl]-N,1-dimethyl-6H-pyrrolo[2,3-e][1,2,4]triazolo[4,3-a]pyridine-7-carboxamide bis(trifluoroacetate) Salt]?
IC50 (BRD4-BD1): ≤ 100 nM; IC50 (BRD4-BD2): ≤ 100 nM

With Cc1nnc2ccc3c(cc(C(=O)NCCCO)n3Cc3ccccc3)n12 [Example 123, 6-Benzyl-N-(3-hydroxypropyl)-1-methyl-6H-pyrrolo[2,3-e][1,2,4]triazolo[4,3-a]pyridine-7-carboxamide Trifluoroacetate Salt] as the compound, how does the IC50 (BRD4-BD1) read?
The IC50 was 100 to 1000 nM.

And the IC50 (BRD4-BD2)?
The IC50 was at most 100 nM.

With Cc1nnc2ccc3c(cc(C(=O)NCC4CNC4)n3Cc3ccccc3)n12 [Example 124, N-(Azetidin-3-ylmethyl)-6-benzyl-1-methyl-6H-pyrrolo[2,3-e][1,2,4]triazolo[4,3-a]pyridine-7-carboxamide bis(trifluoroacetate) Salt] as the compound, how does the IC50 (BRD4-BD1) read?
The IC50 was 1000 to 10000 nM.

What about the IC50 (BRD4-BD2) of the same compound?
Its IC50 is 1000 to 10000 nM.

Which IC50 (BRD4-BD1) does the source give for Cc1nnc2ccc3c(cc(C(=O)NCC(C)C)n3Cc3ccccc3)n12 [Example 125, 6-Benzyl-N-isobutyl-1-methyl-6H-pyrrolo[2,3-e][1,2,4]triazolo[4,3-a]pyridine-7-carboxamide Trifluoroacetate] here?
Its IC50 is 100 to 1000 nM.

And the IC50 (BRD4-BD2)?
The IC50 was 100 to 1000 nM.

With Cc1nnc2ccc3c(cc(C(=O)NCc4ccncc4)n3Cc3ccccc3)n12 [Example 126, 6-Benzyl-1-methyl-N-(pyridin-4-ylmethyl)-6H-pyrrolo[2,3-e][1,2,4]triazolo[4,3-a]pyridine-7-carboxamide bis(trifluoroacetate) Salt] as the compound, how does the IC50 (BRD4-BD1) read?
Its IC50 is 100 to 1000 nM.

And the IC50 (BRD4-BD2)?
The IC50 was 100 to 1000 nM.

For Cc1nnc2ccc3c(cc(C(=O)NCCCO)n3Cc3cccc(Cl)c3)n12 [Example 127, 6-(3-Chlorobenzyl)-N-(3-hydroxypropyl)-1-methyl-6H-pyrrolo[2,3-e][1,2,4]triazolo[4,3-a]pyridine-7-carboxamide Trifluoroacetate Salt], which IC50 (BRD4-BD1) is on record?
Its IC50 is at most 100 nM.

What about the IC50 (BRD4-BD2) of the same compound?
Its IC50 is at most 100 nM.

With Cc1nnc2ccc3c(cc(C(=O)NCC4CNC4)n3Cc3cccc(Cl)c3)n12 [Example 128, N-(Azetidin-3-ylmethyl)-6-(3-chlorobenzyl)-1-methyl-6H-pyrrolo[2,3-e][1,2,4]triazolo[4,3-a]pyridine-7-carboxamide bis(trifluoroacetate) Salt] as the compound, how does the IC50 (BRD4-BD1) read?
The IC50 was 100 to 1000 nM.

What about the IC50 (BRD4-BD2) of the same compound?
The IC50 was 100 to 1000 nM.

For Cc1nnc2ccc3c(cc(C(=O)NCC(C)C)n3Cc3cccc(Cl)c3)n12 [Example 129, 6-(3-Chlorobenzyl)-N-isobutyl-1-methyl-6H-pyrrolo[2,3-e][1,2,4]triazolo[4,3-a]pyridine-7-carboxamide Trifluoroacetate Salt], which IC50 (BRD4-BD1) is on record?
Its IC50 is at most 100 nM.

What about the IC50 (BRD4-BD2) of the same compound?
The IC50 was at most 100 nM.

Which results are given for CNC(=O)c1cc2c(ccc3nnc(C)n32)n1Cc1cc(Cl)cc(CN2CCC2)c1 [Example 131, 6-[3-(Azetidin-1-ylmethyl)-5-chlorobenzyl]-N,1-dimethyl-6H-pyrrolo[2,3-e][1,2,4]triazolo[4,3-a]pyridine-7-carboxamide bis(trifluoroacetate) Salt]?
IC50 (BRD4-BD1): ≤ 100 nM; IC50 (BRD4-BD2): ≤ 100 nM

For CCNC(=O)c1cc2c(ccc3nnc(C)n32)n1Cc1cc(Cl)cc(CN2CCCC2)c1 [Example 133, 6-[3-Chloro-5-(pyrrolidin-1-ylmethyl)benzyl]-N-ethyl-1-methyl-6H-pyrrolo[2,3-e][1,2,4]triazolo[4,3-a]pyridine-7-carboxamide bis(trifluoroacetate) Salt], which IC50 (BRD4-BD1) is on record?
Its IC50 is at most 100 nM.

What about the IC50 (BRD4-BD2) of the same compound?
Its IC50 is at most 100 nM.

What does the source list for CNC(=O)c1cc2c(ccc3nnc(C)n32)n1Cc1cc(Cl)cc(CN2CCC(F)(F)C2)c1 [Example 134, 6-{3-Chloro-5-[(3,3-difluoropyrrolidin-1-yl)methyl]benzyl}-N,1-dimethyl-6H-pyrrolo[2,3-e][1,2,4]triazolo[4,3-a]pyridine-7-carboxamide 2.4×(trifluoroacetate) Salt]?
IC50 (BRD4-BD1): ≤ 100 nM; IC50 (BRD4-BD2): ≤ 100 nM

Which results are given for CNC(=O)c1cc2c(ccc3nnc(C)n32)n1Cc1cc(Cl)cc(CN2CC(C)(C)C2)c1 [Example 135, 6-{3-Chloro-5-[(3,3-dimethylazetidin-1-yl)methyl]benzyl}-N,1-dimethyl-6H-pyrrolo[2,3-e][1,2,4]triazolo[4,3-a]pyridine-7-carboxamide bis(trifluoroacetate) Salt]?
IC50 (BRD4-BD1): ≤ 100 nM; IC50 (BRD4-BD2): ≤ 100 nM

Which results are given for CNC(=O)c1cc2c(ccc3nnc(C)n32)n1Cc1cccc(C(F)(F)F)c1 [Example 136, N,1-dimethyl-6-[3-(trifluoromethyl)benzyl]-6H-pyrrolo[2,3-e][1,2,4]triazolo[4,3-a]pyridine-7-carboxamide Trifluoroacetate Salt]?
IC50 (BRD4-BD1): ≤ 100 nM; IC50 (BRD4-BD2): ≤ 100 nM

What does the source list for CCNC(=O)c1cc2c(ccc3nnc(C)n32)n1Cc1cccc(C(F)(F)F)c1 [Example 137, N-Ethyl-1-methyl-6-[3-(trifluoromethyl)benzyl]-6H-pyrrolo[2,3-e][1,2,4]triazolo[4,3-a]pyridine-7-carboxamide Trifluoroacetate Salt]?
IC50 (BRD4-BD1): ≤ 100 nM; IC50 (BRD4-BD2): ≤ 100 nM
